Experimental data taken from patent publication US7438931B2, “Methods and compositions for the treatment of angiogenic diseases” (The Regents of The University of Michigan, priority 1998, dated 2008).

Assays:
[1] = Stability of sucrose-TM complex vs pure TM in open air (OD467); assay type: physicochemical; conditions: after 3 months of storage in an open dish
Method: An example of such a stabilized thiomolybdate compound is tetrathiomolybdate stabilized by sucrose. To prepare the sucrose-ammonium tetrathiomolybdate complex, 25 grams of sucrose is dissolved in 20 ml of distilled water. 1 gram of ammonium tetrathiomolybdate (TM) is added and the mixture stirred under argon until the TM is solution. The water is then removed from the mixture by flash evaporation under high vacuum.
After 3 months of storage in an open dish, the sucrose powder retained 61% of the original drug as measured by the OD467, while the TM stored under the same conditions retained only 5% of its original OD467.

[2] = Storage stability of TM (bulk under argon, capsules); assay type: physicochemical; conditions: room temperature
Text: The bulk drug is therefore stored under argon.
TM was purchased in bulk lots suitable for human administration (Aldrich Chemical Company, Milwaukee, Wis.). […] At the time a prescription was written, the appropriate dose of TM was placed in gelatin capsules. Previously, it was shown by the inventors that TM dispensed in such capsules retained at least 90% of its potency for eight weeks (Brewer et al., 1991a). Thus, TM was dispensed to each patient in eight-week installments throughout the trial.

Phase I trial: toxicity = assay type: in vivo, human
Text: Six patients were to be enrolled at each dose level. After 4 patients were enrolled at level I, if one patient experienced dose-limiting toxicity (DLT) (defined as Hct<80% of baseline), 2 more patients were enrolled at level I. If no DLT was observed, patients were enrolled at the next dose level. Treatment was allowed to continue beyond induction of target copper deficiency, if the patients experienced a partial or complete clinical response or achieved clinical stable disease by the following definitions. Complete response is defined as the disappearance of all clinical and laboratory signs and symptoms of active disease. Partial response is defined as a 50% or greater reduction in the size of measurable lesions defined by the sum of the products of the longest perpendicular diameters of the lesions, with no new lesions or lesions increasing in size. Minor response is defined as a 25-49% reduction in the sum of the products of the longest perpendicular diameters of one or more measurable lesions, no increase in size of any lesions and no new lesions; stable disease is any change in tumor measurements not represented by the criteria for response or progressive disease, which is defined as an increase of 25% or more in the sum of the products of the longest perpendicular diameters of any measurable indicator lesions, compared to the smallest previous measurement or appearance of a new lesion. Because copper deficiency is not a cytotoxic treatment modality, the patients who provide information about the efficacy of TM for long-term therapy, in this population of patients with advanced cancer, are primarily those who remained within the target Cp window of (20±10)% of baseline for over 90 days, without disease progression
Complete blood counts, liver and renal function tests, urinalyses, and Cp level (by the oxidase method) were performed weekly for 16 weeks, then bi-weekly. Physical examinations and evaluations of toxicity were carried out every 2 weeks for 8 weeks, then every 4 weeks for the duration of therapy. Toxicity was evaluated using the National Cancer Institute Common Toxicity Criteria (Table 3). […] Nevertheless, therapy will be discontinued and the patient removed from the study if grade 3 or higher toxicities of any type are observed, whatever the probable etiology. For grade 2 toxicities, an attempt will be made to establish their etiology.

copper metabolism = assay: Open label study of TM for initial treatment of Wilson's disease patients; assay type: in vivo, human
Text: The inventors have carried out an open label study of the use of TM for initial treatment of neurologically presenting Wilson's disease patients for the past several years. The inventors have developed both a spectrophotometric and bioassay for the activity of the drug, to evaluate stability, and assure potency of the drug being administered (Brewer et al., 1991a; Brewer et al., 1994b). The drug slowly loses potency when exposed to air.
The inventors have now treated a total of 51 Wilson's disease patients with TM, all of whom presented with neurological or psychiatric disease, in an open label study. These patients were all diagnosed by standard criteria. […] Some of them were treated briefly with other agents prior to this trial. Two patients had psychiatric but not neurological symptoms.
With three exceptions in the earliest part of the study, all patients received a dose of 20 mg tid with meals, or qid with three meals and a snack. Thus, the only difference between a patient receiving 120 mg and 140 mg total dose is that the former was receiving 20 mg tid, or 60 mg, with meals, and the latter was receiving 20 mg qid, or 80 mg with meals plus a snack. The rest of the total daily dose was divided up into three equal doses and given between meals.
TM impacts quickly and favorably on copper metabolism, reducing the potentially toxic copper of the blood and theoretically, the rest of the body. The primary clinical objective is to gain control over copper toxicity while not allowing clinical worsening. In other words, the prime objective is to protect all neurological function that is present at the time therapy is started. This was evaluated weekly by quantitative neurological and speech exams. Methodology and the neurology rating scale system have been published (Young et al., 1986). During the weeks of TM administration, during which copper metabolism is being controlled, neurological function as evaluated by quantitative neurological exam, is protected.

Cp level = assay: TM loading dosing schedule and Cp reduction; assay type: in vivo, human; conditions: 20 mg tid with meals and a single dose of 60 mg between meals, vs 20 mg tid with meals and 20 mg tid between meals
Method: Therefore, this dosing schedule will be studied in a Phase II study. Three other loading doses of TM will also be studied: Level 1: 20 mg tid between meals and 20 mg tid with meals until Cp<20% (10 patients); Level 2: 25 mg tid between meals and 25 mg tid with meals until Cp<20% (10 patients); and Level 3: 30 mg tid between meals and 30 mg tid with meals until Cp<20% (10 patients).

copper toxicity = conditions: cited from earlier work
[3] = among the seven anemia patients

tetrathiomolybdate [TM]
retained % of the original drug as measured by the OD467 [1]: 5% | stability in capsules [2]: stable in capsules for several months at room temperature | toxicities (Phase I trial: toxicity; Cp levels at or above 20% of baseline): no cardiac, pulmonary, GI, renal, hepatic, hematologic, infectious, skin, mucosal, or neurologic toxicities observed | patients with mild (greater than 80% of baseline Hct) reversible anemia (Phase I trial: toxicity; Cp levels between 10-20% of baseline): 4 patients | toxicity (Phase I trial: toxicity; Cp lowered to 10-20% of baseline for up to 17 months of treatment): remarkably non-toxic | toxicity (Phase I trial: toxicity; Cp reduced to 15-20% of baseline): non-toxic | only drug-related toxicity observed (Phase I trial: toxicity; in vivo): mild anemia in one patient | toxicities on long-term maintenance (Phase I trial: toxicity; mild clinical copper deficiency over 8-15 months): No additional toxicities of any type were observed | time for hematocrit to recover after stopping the drug (Phase I trial: toxicity; one patient, without transfusion): 5 to 7 days | other adverse effect (Phase I trial: toxicity; several patients, within 30 minutes of TM ingestion): transient, occasional sulphur-smelling burping | cases of reversible anemia (copper metabolism; 45 patients treated eight weeks with TM as initial therapy): 11.1% | patients with reduction in platelet count (copper metabolism; [3]): Three | patients with reduction in white blood cell count (copper metabolism; [3]): four | patients with overtreatment (copper metabolism; dose of 180 mg/day or over): 6 of 37 | patients with overtreatment (copper metabolism; dose of 150 or lower): 1 of 13 | time to close the plasma copper-molybdenum gap (free copper reduced to zero) (copper metabolism; first patient, tid with meals 7 days, then also tid between meals): 16 days | patients with elevation of transaminase values (serum AST and ALT) (copper metabolism; human, in vivo): four | patients with reversible anemia/bone marrow depression (copper metabolism; human, in vivo): seven | quantitative speech exam scores (copper metabolism; initial 8 weeks of TM therapy): No patient shows significant (more than 2.0 units) reduction in scores | TCA soluble fraction of plasma copper (copper metabolism; late stages of TM therapy, starting value 27): 15 µg/dL | fall in hemoglobin, average (copper metabolism; patients with anemia): 3.4 g % | patients with neurological worsening (change of more than 5 units) (copper metabolism; weeks of TM administration, quantitative neurological exam): 4 % of the sample | speed of Cp reduction (Cp level): reduces the Cp level to <20% more rapidly | tolerability of IV TM injections (copper toxicity; copper loaded sheep, 50 or 100 mg 2× weekly for up to 11 weeks): tolerated up to 22 injections of TM without clinical problems | adverse side effects (copper toxicity; over 400 animals of commercial sheep flocks, prophylactic use): no adverse side effects | water solubility (Water solubility): moderately water soluble
